Assay results from publication PMC5218480 (PLoS ONE, 2017).

Test system: MV-4-11 cells
Test: Gene expression microarray analysis (Affymetrix PrimeView) and GSEA
Assay type: cell-based, human
Set-up: RFU PODN (11730768_x_at) / Fold change /veh PODN (11730768_x_at) / RFU LINC00158 (11744669_a_at) / Fold change /veh LINC00158 (11744669_a_at) / RFU DUSP10 (11751237_a_at) / Fold change /veh DUSP10 (11751237_a_at) / RFU ID3 (11757404_x_at) / Fold change /veh ID3 (11757404_x_at) / RFU PLEKHG5 (11737974_s_at) / Fold change /veh PLEKHG5 (11737974_s_at) / RFU LRRC4B (11730491_at) / Fold change /veh LRRC4B (11730491_at) / RFU GIMAP4 (11747438_a_at) / Fold change /veh GIMAP4 (11747438_a_at) / RFU KRT8 (11758183_x_at) / Fold change /veh KRT8 (11758183_x_at) / RFU CNN1 (11734310_a_at) / Fold change /veh CNN1 (11734310_a_at) / RFU VPS37D (11726825_at) / Fold change /veh VPS37D (11726825_at) / RFU C10orf10 (11716522_x_at) / Fold change /veh C10orf10 (11716522_x_at) / RFU KIR2DL2 /// KIR2DL4 /// KIR2DL5A /// KIR2DL5B /// KIR2DS1 /// KIR2DS2 /// KIR2DS3 /// KIR2DS4 /// KIR3DL3 /// KIR3DL3 /// KIR3DS1 (11738374_at) / Fold change /veh KIR2DL2 /// KIR2DL4 /// KIR2DL5A /// KIR2DL5B /// KIR2DS1 /// KIR2DS2 /// KIR2DS3 /// KIR2DS4 /// KIR3DL3 /// KIR3DL3 /// KIR3DS1 (11738374_at) / RFU C1QL1 (11718748_at) / Fold change /veh C1QL1 (11718748_at) / RFU TMPRSS4 (11747572_a_at) / Fold change /veh TMPRSS4 (11747572_a_at) / RFU HAMP (11756126_x_at) / Fold change /veh HAMP (11756126_x_at) / RFU RNFT2 (11725882_a_at) / Fold change /veh RNFT2 (11725882_a_at) / RFU NR4A2 (11747474_a_at) / Fold change /veh NR4A2 (11747474_a_at) / RFU ABCC12 (11746883_a_at) / Fold change /veh ABCC12 (11746883_a_at) / RFU TMEM136 (11760407_x_at) / Fold change /veh TMEM136 (11760407_x_at) / RFU CLDN22 /// WWC2 (11732394_at) / Fold change /veh CLDN22 /// WWC2 (11732394_at) / RFU HLA-DPB1 (11760878_x_at) / Fold change /veh HLA-DPB1 (11760878_x_at) / RFU SPINT1 (11716480_a_at) / Fold change /veh SPINT1 (11716480_a_at) / RFU GAP43 (11754022_s_at) / Fold change /veh GAP43 (11754022_s_at) / RFU A4GNT (11735810_at) / Fold change /veh A4GNT (11735810_at) / RFU PRB3 (11715151_x_at) / Fold change /veh PRB3 (11715151_x_at) / RFU TUBB4B (11761932_at) / Fold change /veh TUBB4B (11761932_at) / RFU CAPN14 (11732068_a_at) / Fold change /veh CAPN14 (11732068_a_at) / RFU TMCC2 (11721928_a_at) / Fold change /veh TMCC2 (11721928_a_at) / RFU IRGQ (11745062_a_at) / Fold change /veh IRGQ (11745062_a_at) / RFU FAM174B (11720279_a_at) / Fold change /veh FAM174B (11720279_a_at) / RFU TMPRSS4 (11748680_a_at) / Fold change /veh TMPRSS4 (11748680_a_at) / RFU FAM212B (11763350_a_at) / Fold change /veh FAM212B (11763350_a_at) / RFU PLEKHG5 (11743358_a_at) / Fold change /veh PLEKHG5 (11743358_a_at) / RFU ZSCAN30 (11745921_a_at) / Fold change /veh ZSCAN30 (11745921_a_at) / RFU CMKLR1 (11741424_a_at) / Fold change /veh CMKLR1 (11741424_a_at) / RFU LOC101060620 /// MAPK8IP1 (11723275_at) / Fold change /veh LOC101060620 /// MAPK8IP1 (11723275_at) / RFU SPTSSB (11747773_x_at) / Fold change /veh SPTSSB (11747773_x_at) / RFU PRSS12 (11739890_at) / Fold change /veh PRSS12 (11739890_at) / RFU BIN1 (11741810_x_at) / Fold change /veh BIN1 (11741810_x_at) / RFU WNT11 (11732464_a_at) / Fold change /veh WNT11 (11732464_a_at) / RFU C10orf10 (11716521_a_at) / Fold change /veh C10orf10 (11716521_a_at) / RFU C5orf56 (11738089_at) / Fold change /veh C5orf56 (11738089_at) / RFU CYB561 (11721691_x_at) / Fold change /veh CYB561 (11721691_x_at) / RFU ANKRD19P (11752326_a_at) / Fold change /veh ANKRD19P (11752326_a_at) / RFU OR2T12 /// OR2T33 /// OR2T8 (11738714_s_at) / Fold change /veh OR2T12 /// OR2T33 /// OR2T8 (11738714_s_at) / RFU VCAN (11748164_a_at) / Fold change /veh VCAN (11748164_a_at) / RFU JSRP1 (11732532_at) / Fold change /veh JSRP1 (11732532_at) / RFU KRTAP10-11 (11738290_x_at) / Fold change /veh KRTAP10-11 (11738290_x_at) / RFU MYO3A (11730013_a_at) / Fold change /veh MYO3A (11730013_a_at) / RFU EBF3 (11725865_a_at) / Fold change /veh EBF3 (11725865_a_at) / RFU CAMK2N1 (11719241_x_at) / Fold change /veh CAMK2N1 (11719241_x_at) / RFU C5orf56 (11738088_a_at) / Fold change /veh C5orf56 (11738088_a_at) / RFU OLFML3 (11715873_a_at) / Fold change /veh OLFML3 (11715873_a_at) / RFU LOC100653217 /// NTM (11731650_a_at) / Fold change /veh LOC100653217 /// NTM (11731650_a_at) / RFU MAPK11 (11762145_a_at) / Fold change /veh MAPK11 (11762145_a_at) / RFU FIZ1 (11724087_x_at) / Fold change /veh FIZ1 (11724087_x_at) / RFU OASL (11726364_x_at) / Fold change /veh OASL (11726364_x_at) / RFU SOX15 (11748057_x_at) / Fold change /veh SOX15 (11748057_x_at) / RFU CD79A (11719716_a_at) / Fold change /veh CD79A (11719716_a_at) / RFU HIST1H1D (11736915_at) / Fold change /veh HIST1H1D (11736915_at) / RFU CASKIN2 (11723855_a_at) / Fold change /veh CASKIN2 (11723855_a_at) / RFU LOC730098 (11760151_x_at) / Fold change /veh LOC730098 (11760151_x_at) / RFU OR4N2 (11742367_at) / Fold change /veh OR4N2 (11742367_at) / RFU PRRT2 (11749266_a_at) / Fold change /veh PRRT2 (11749266_a_at) / RFU SNX32 (11753110_a_at) / Fold change /veh SNX32 (11753110_a_at) / RFU CDHR5 (11726645_a_at) / Fold change /veh CDHR5 (11726645_a_at) / RFU RCAN1 (11760418_a_at) / Fold change /veh RCAN1 (11760418_a_at) / RFU FAM167A (11723789_a_at) / Fold change /veh FAM167A (11723789_a_at) / RFU FAM26E (11764081_at) / Fold change /veh FAM26E (11764081_at) / RFU ISYNA1 (11749810_s_at) / Fold change /veh ISYNA1 (11749810_s_at) / RFU ACY1 (11761880_at) / Fold change /veh ACY1 (11761880_at) / RFU 11764098_at / Fold change /veh 11764098_at / RFU SAMD14 (11745864_x_at) / Fold change /veh SAMD14 (11745864_x_at) / RFU NPB (11741838_a_at) / Fold change /veh NPB (11741838_a_at) / RFU TMPRSS6 (11731388_a_at) / Fold change /veh TMPRSS6 (11731388_a_at) / RFU KRTAP10-2 (11738614_at) / Fold change /veh KRTAP10-2 (11738614_at) / RFU ARHGAP8 /// PRR5-ARHGAP8 (11727945_x_at) / Fold change /veh ARHGAP8 /// PRR5-ARHGAP8 (11727945_x_at) / RFU KRTAP5-7 /// NADSYN1 (11734609_at) / Fold change /veh KRTAP5-7 /// NADSYN1 (11734609_at) / RFU RASL12 (11751679_a_at) / Fold change /veh RASL12 (11751679_a_at) / RFU CDKN2B (11736163_a_at) / Fold change /veh CDKN2B (11736163_a_at) / RFU PRF1 (11729649_at) / Fold change /veh PRF1 (11729649_at) / RFU, ZNF638 /// ZNF638-IT1 / Fold change vs veh, ZNF638 /// ZNF638-IT1 / RFU, PANK3 / Fold change vs veh, PANK3 / RFU, SH3YL1 / Fold change vs veh, SH3YL1 / RFU, ZEB2 / Fold change vs veh, ZEB2 / RFU, NRIP1 / Fold change vs veh, NRIP1 / RFU, PTTG1IP / Fold change vs veh, PTTG1IP / RFU, CAPN2 / Fold change vs veh, CAPN2 / RFU, MED14 / Fold change vs veh, MED14 / RFU, SNORA58 / Fold change vs veh, SNORA58 / RFU, C1orf63 / Fold change vs veh, C1orf63 / RFU, LRRFIP1 / Fold change vs veh, LRRFIP1 / RFU, NDUFAF7 / Fold change vs veh, NDUFAF7 / RFU, SLC12A2 / Fold change vs veh, SLC12A2 / RFU, IBTK / Fold change vs veh, IBTK / RFU, ESF1 / Fold change vs veh, ESF1 / Fold change vs veh, TMEM50B / RFU, TAOK1 / Fold change vs veh, TAOK1 / RFU, ACBD3 / Fold change vs veh, ACBD3 / RFU, TMA16 / Fold change vs veh, TMA16 / RFU, RWDD3 / Fold change vs veh, RWDD3 / RFU, BCAT1 / Fold change vs veh, BCAT1 / RFU, EDEM3 / Fold change vs veh, EDEM3 / RFU, TMEM33 / Fold change vs veh, TMEM33 / RFU, WDR75 / Fold change vs veh, WDR75 / RFU, AHCTF1 / Fold change vs veh, AHCTF1 / RFU, TFRC / Fold change vs veh, TFRC / RFU, ZDHHC17 / Fold change vs veh, ZDHHC17 / RFU, NOM1 / Fold change vs veh, NOM1 / RFU, ARL8B / Fold change vs veh, ARL8B / RFU, ZBTB11 / Fold change vs veh, ZBTB11 / RFU, TAMM41 / Fold change vs veh, TAMM41 / RFU, KIAA1704 /// LOC100996395 / Fold change vs veh, KIAA1704 /// LOC100996395 / RFU, ING1 / Fold change vs veh, ING1 / RFU, TRMT61B / Fold change vs veh, TRMT61B / RFU, FUBP3 / Fold change vs veh, FUBP3 / RFU, TP53 / Fold change vs veh, TP53 / RFU, TNKS2 / Fold change vs veh, TNKS2 / RFU, ZFP14 / Fold change vs veh, ZFP14 / RFU, ACTR2 / Fold change vs veh, ACTR2 / RFU, PPP3R1 / Fold change vs veh, PPP3R1 / RFU, PIK3R1 / Fold change vs veh, PIK3R1 / RFU, HNRNPA1 / Fold change vs veh, HNRNPA1 / RFU, RNF170 / Fold change vs veh, RNF170 / RFU, ZNF28 / Fold change vs veh, ZNF28 / RFU, RNGTT / Fold change vs veh, RNGTT / RFU, OGT / Fold change vs veh, OGT / RFU, BRD1 / Fold change vs veh, BRD1 / RFU, MARS / Fold change vs veh, MARS / RFU, ZNF655 / Fold change vs veh, ZNF655 / RFU, FAHD1 / Fold change vs veh, FAHD1 / RFU, BDP1 / Fold change vs veh, BDP1 / RFU, LRRCC1 / Fold change vs veh, LRRCC1 / RFU, ARID1A / Fold change vs veh, ARID1A / RFU, ZNF146 / Fold change vs veh, ZNF146 / RFU, ZNF330 / Fold change vs veh, ZNF330 / RFU, GPN3 / Fold change vs veh, GPN3 / RFU, C9orf123 / Fold change vs veh, C9orf123 / RFU, N4BP2L2 / Fold change vs veh, N4BP2L2 / RFU, ARFIP1 / Fold change vs veh, ARFIP1 / RFU, FAM179B / Fold change vs veh, FAM179B / RFU, BCL10 / Fold change vs veh, BCL10 / RFU, UHRF1BP1L / Fold change vs veh, UHRF1BP1L / RFU, BET1 / Fold change vs veh, BET1 / RFU, CNOT2 / Fold change vs veh, CNOT2 / RFU, ZNF268 / Fold change vs veh, ZNF268 / Fold change vs veh, ZNF507 / RFU, DGCR2 / Fold change vs veh, DGCR2 / RFU, WDSUB1 / Fold change vs veh, WDSUB1 / Fold change vs veh, HSP90B1 /// MIR3652 / RFU, ADSS / Fold change vs veh, ADSS / RFU, GK / Fold change vs veh, GK / RFU, ZNF148 / Fold change vs veh, ZNF148 / RFU, TAF9 / Fold change vs veh, TAF9 / RFU, SLC1A5 / Fold change vs veh, SLC1A5 / RFU, SLMO2 / Fold change vs veh, SLMO2 / RFU, ABCC4 / Fold change vs veh, ABCC4 / RFU, LOC101060439 /// RAP1B / Fold change vs veh, LOC101060439 /// RAP1B / RFU, RFX7 / Fold change vs veh, RFX7 / RFU, GTPBP10 / Fold change vs veh, GTPBP10 / RFU, CNEP1R1 / Fold change vs veh, CNEP1R1 / RFU, BIVM-ERCC5 /// ERCC5 / Fold change vs veh, BIVM-ERCC5 /// ERCC5 / RFU, ILF3 / Fold change vs veh, ILF3 / RFU 11762660_at / Fold change /veh 11762660_at / RFU VCAN (11757783_s_at) / Fold change /veh VCAN (11757783_s_at) / RFU DDX43 (11728927_at) / Fold change /veh DDX43 (11728927_at) / RFU KRT8 (11758188_x_at) / Fold change /veh KRT8 (11758188_x_at) / RFU NKD1 (11759106_at) / Fold change /veh NKD1 (11759106_at) / RFU SRD5A1 (11742802_a_at) / Fold change /veh SRD5A1 (11742802_a_at) / RFU TPSAB1 /// TPSB2 (11721975_s_at) / Fold change /veh TPSAB1 /// TPSB2 (11721975_s_at) / RFU GSTM3 (11746129_a_at) / Fold change /veh GSTM3 (11746129_a_at) / RFU IL23R (11737362_x_at) / Fold change /veh IL23R (11737362_x_at) / RFU TMEM51 (11727254_a_at) / Fold change /veh TMEM51 (11727254_a_at) / RFU PIWIL2 (11732686_x_at) / Fold change /veh PIWIL2 (11732686_x_at) / RFU ORM1 (11744905_x_at) / Fold change /veh ORM1 (11744905_x_at) / RFU CCDC152 (11743942_at) / Fold change /veh CCDC152 (11743942_at) / RFU ECM1 (11717891_a_at) / Fold change /veh ECM1 (11717891_a_at) / RFU IL23R (11748794_a_at) / Fold change /veh IL23R (11748794_a_at) / RFU TNFAIP8L3 (11732012_x_at) / Fold change /veh TNFAIP8L3 (11732012_x_at) / RFU MBOAT4 (11741988_at) / Fold change /veh MBOAT4 (11741988_at) / RFU 11764193_at / Fold change /veh 11764193_at / RFU TMEM53 (11763286_at) / Fold change /veh TMEM53 (11763286_at) / RFU MAGEB2 (11727129_at) / Fold change /veh MAGEB2 (11727129_at) / RFU TMEM200A (11744735_a_at) / Fold change /veh TMEM200A (11744735_a_at) / RFU CCDC152 (11751479_a_at) / Fold change /veh CCDC152 (11751479_a_at) / RFU FAM211A (11726209_a_at) / Fold change /veh FAM211A (11726209_a_at) / RFU RGS16 (11746705_a_at) / Fold change /veh RGS16 (11746705_a_at) / RFU VCAN (11755009_s_at) / Fold change /veh VCAN (11755009_s_at) / RFU RHOB (11743442_s_at) / Fold change /veh RHOB (11743442_s_at) / RFU RGS16 (11720943_a_at) / Fold change /veh RGS16 (11720943_a_at) / RFU RGS16 (11720944_at) / Fold change /veh RGS16 (11720944_at) / RFU, VPS4B / Fold change vs veh, VPS4B / RFU, CREB1 / Fold change vs veh, CREB1 / RFU, DNAJC13 / Fold change vs veh, DNAJC13 / RFU, GNAQ / Fold change vs veh, GNAQ / RFU, CDK5R1 / Fold change vs veh, CDK5R1 / RFU, ZRANB3 / Fold change vs veh, ZRANB3 / RFU, CUL4A / Fold change vs veh, CUL4A / RFU, CCNY / Fold change vs veh, CCNY / RFU, UFL1 / Fold change vs veh, UFL1 / RFU, COG3 / Fold change vs veh, COG3 / RFU, DIAPH2 / Fold change vs veh, DIAPH2 / RFU, SKA2 / Fold change vs veh, SKA2 / RFU, AFF3 / Fold change vs veh, AFF3 / RFU, LMF1 / Fold change vs veh, LMF1 / RFU, IPO11 / Fold change vs veh, IPO11 / RFU, DFFB / Fold change vs veh, DFFB / RFU, FOXP1 / Fold change vs veh, FOXP1 / RFU, CARD8 / Fold change vs veh, CARD8 / RFU, STRN3 / Fold change vs veh, STRN3 / RFU, ADK / Fold change vs veh, ADK / RFU, RASSF2 / Fold change vs veh, RASSF2 / RFU, WIPF1 / Fold change vs veh, WIPF1 / RFU, LARP1B / Fold change vs veh, LARP1B / RFU, RASA1 / Fold change vs veh, RASA1 / RFU, RB1 / Fold change vs veh, RB1 / RFU, PPFIA1 / Fold change vs veh, PPFIA1 / RFU, MAT2A / Fold change vs veh, MAT2A / RFU, CCT5 / Fold change vs veh, CCT5 / RFU, WDR92 / Fold change vs veh, WDR92 / RFU, CUX1 / Fold change vs veh, CUX1 / RFU, TTC7A / Fold change vs veh, TTC7A / RFU, TMEM135 / Fold change vs veh, TMEM135 / RFU, DEPTOR / Fold change vs veh, DEPTOR / RFU, CPM / Fold change vs veh, CPM / RFU, DNAJB6 / Fold change vs veh, DNAJB6 / RFU, CACNA2D3 / Fold change vs veh, CACNA2D3 / RFU, DTX4 / Fold change vs veh, DTX4 / RFU, TFCP2 / Fold change vs veh, TFCP2 / RFU, GMCL1 /// GMCL1P1 / Fold change vs veh, GMCL1 /// GMCL1P1 / RFU, AEBP2 / Fold change vs veh, AEBP2 / RFU, SNHG1 /// SNORD22 /// SNORD25 /// SNORD26 /// SNORD27 /// SNORD28 /// SNORD29 /// SNORD31 / Fold change vs veh, SNHG1 /// SNORD22 /// SNORD25 /// SNORD26 /// SNORD27 /// SNORD28 /// SNORD29 /// SNORD31 / Fold change (Aza/veh), C12orf56 (ProbeSet 11735607_a_at) / Fold change (ACY-1035/veh), C12orf56 (ProbeSet 11735607_a_at) / Fold change (Aza/veh), FGFR1OP (ProbeSet 11751329_s_at) / Fold change (ACY-1035/veh), FGFR1OP (ProbeSet 11751329_s_at) / Fold change (Aza/veh), VPS36 (ProbeSet 11739960_a_at) / Fold change (ACY-1035/veh), VPS36 (ProbeSet 11739960_a_at) / RFU SYPL1 (11715823_x_at) / Fold change /veh SYPL1 (11715823_x_at) / RFU IGFBP7 (11715501_s_at) / Fold change /veh IGFBP7 (11715501_s_at) / RFU REEP3 (11722064_at) / Fold change /veh REEP3 (11722064_at) / RFU IGLL1 (11728026_x_at) / Fold change /veh IGLL1 (11728026_x_at): dose or concentration left out as unconfirmed
Details: MV-4-11 cells, 48 hours

Nc1ncn([C@@H]2O[C@H](CO)[C@@H](O)[C@H]2O)c(=O)n1 [azacitidine]
Fold change /veh CNN1 (11734310_a_at): 1.15
